Measured values: US8927280B2, “Compositions and methods for promoting the generation of definitive endoderm” (President and Fellows of Harvard College, priority 2009, dated 2015)
Values joined by “and” are separate entries in the source; they are usually repeats but may differ in a detail not shown here. Identical values can stand only once. “Also recorded” adds a separate entry of the source.

Assays:
[1] = test system: gut tube of E8.75 mouse embryos; assay: Injection of compound induced endoderm into gut tube of E8.75 mouse embryos, ex vivo embryo culture; assay type: in vivo; settings: for incorporation of induced endodermal cells into gut tube (in words): FoxA2, Cldn6 and YFP staining; for embryos in which induced cells integrated into the gut: cells treated 6 days, injected into E8.75 embryos, 24-30 hrs ex vivo culture
Description: Mouse E8.5 ICR embryos were dissected in Hanks Balanced Salt Solution and cultured in the DMEM/F12 (Invitrogen) media supplemented with 50% rat serum (Valley Biomedical), penicillin, streptomycin, glutamine at 37° C. for 20-24 hrs. The YFP mouse ES cells were cultured in the presence of hit compounds for 6 days to induce endoderm formation and then cells were dissociated with trypsin and approx. 100 000 cells were injected into gut tube of E8.75 embryos. Following injections, embryos were transferred to rotating bottle culture unit and were then cultured in media (1.5-2 ml per embryo) as above under humidified conditions at 40% O2, 5% CO2, 55% N2, and 37° C. After 30 hrs culture, embryos were fixed in 4% paraformaldehyde in PBS, embedded in tissue-tek and cryosections were stained with antibodies against Cld6, FoxA2 an YFP.
For chemically derived endoderm to be useful, it is important to determine its developmental potential, beyond the expression of endodermal markers. The ultimate goal is to direct the cells to form functional beta cells. To begin to address this possibility and functional potential of derived populations, mouse ES cells ubiquitously expressing enhanced yellow fluorescent protein (EYFP) (Hadjantonakis et al., 2002) were induced to form endoderm with IDE1, IDE2, or DMSO (control). At day 6 of treatment, the inventors dissociated and injected the cells into the gut tube (a derivative of endoderm) of live E8.75 embryos. The lumen of the gut tube can be accessed prior to the completion of embryonic turning and gut tube closure and therefore provides a developmental window for functional assessment of ES-derived endoderm cells. Chemically derived endoderm was injected into the primitive gut tube at the anterior and posterior intestinal portals. At this time the gut tube is still open and anterior intestinal portal is accessible (FIG. 6A). The embryos were cultured ex vivo for 24-30 hrs during which time the lateral walls of the embryonic gut fold ventrally and the gut tube closes, around E9.5. […] Cells induced by IDE1 treatment integrated into the gut, in 8 out of 35 cases, and in 7 out of 29 embryos for IDE2. Conversely, DMSO (control) treated cells never integrate into the developing gut tube (0/10 and 0/11, respectively) and instead remain in the lumen (FIG. 6B).

[2] = test system: Smad2; assay: Western blot analysis of Smad2 phosphorylation in ES cell lysates; assay type: cell-based, mouse; settings: ES cell lysates, after 24 hrs or longer
Description: Cells were lysed in 1×RIPA lysis buffer in the presence of protease inhibitor mixture (Roche)/1% phosphatase inhibitor mixture (Roche). Proteins were separated by 10% Tris-Glycine SDS/PAGE (Bio-rad) under denaturing conditions and transferred to a nitrocellulose membrane. After blocking with 5% skim milk in PBS/0.1% Triton X, the membrane was incubated with primary antibodies against phospho-Smad2 (1:1000, Cell Signaling) overnight at 4° C. The membrane was then washed, incubated with anti-mouse/rabbit peroxidase-conjugated affinity-purified secondary antibody (1:1000, Cell Signaling) at room temperature for 1 h, and developed by SuperSignal chemiluminescence (Pierce).

[3] = test system: mouse ES cells; assay: Sox17 endoderm induction in mouse ES cell monolayer cultures; assay type: cell-based; settings: mouse ES cells; for EC50: 144 h, treatment for 6 days, immunofluorescence, titration 50 nM to 5 μM, read-out: EC50 of Sox17 expression; for percentage of cells expressing Sox17 after 12 hrs treatment: analysed at day 6; for day of treatment at which endoderm induction peaks: 14 days time course; for percent of total cells expressing Sox17 at day 6 of treatment: αSox17 immunofluorescence
Description: Mouse ES cells were routinely cultured on irradiated CF-1 MEF feeder cells in DMEM (Gibco) media supplemented with 15% Fetal Bovine Serum (HyClone FBS, Invitrogen), 2 mM L-glutamine (L-Glu, Gibco), 1.1 mM 2-mercaptoethanol (Gibco), 1 mM nonessential amino acids (Gibco), 1× penicillin/streptomycin (P/S, Gibco) and 5×10^5 units LIF (Chemicon). Cells were passaged at the ratio of 1:6-1:12 every 2-3 days using 0.25% trypsin. To generate the starting population, mouse ES cells was cultured on MEF feeder cells until they reached 80-90% confluence. Prior to differentiation, ES cells were passaged onto gelatin coated plates for 30 min to remove MEFs. MEF depleted ES cells were seeded at 2500 cells per cm^2 on gelatinized plates. After overnight culture, cells were exposed to 25 ng/ml Wnt3a (R&D Systems)+50 ng/ml recombinant Activin A (R&D Systems) or 500 ng/ml Nodal (R&D Systems) in DMEM (Gibco) supplemented with 1×L-Glu and 0.2% FBS (Gibco) for 1 day, then Activin A or Nodal in the same media and cultured for 4-6 days to induce endoderm differentiation. For the chemical inductions, compounds IDE1 and IDE2 (provided by Stuart L. Schreiber) were added at 5 μM concentration in the differentiation media. For pancreatic progenitors induction, the cells were transferred to 50 ng/ml FGF10 (R&D Systems), 0.75 μM KAAD-cyclopamine (Calbiochem) and 2 μM RA (Sigma) or Indolactam V 330 nM (Axxora) in DMEM supplemented with 1×L-Glu, 1×PS, 1×B27 (Invitrogen) for 4 days. SHB431542 was purchased from Sigma. All stock compounds were made with either DMSO or PBS
Cells were fixed in 4% paraformaldehyde (Sigma) in PBS for 20 min at 4° C. followed by a wash with PBS. Cells were blocked with 10% donkey serum (Jackson Immunoresearch) in PBS/0.1% Triton X and incubated with primary antibodies overnight at 4° C. Secondary antibodies were incubated for 1 h at room temperature. The following antibodies and dilutions were used: goat anti-SOX17, (1:500 R&D systems); rabbit anti-PDX1 (1:200, Chemicon), rabbit anti-FoxA2 (1:500; Upstate), rabbit anti-Dab2 (1:200, Santa Cruz), rabbit anti-SPARC (1:200, Santa Cruz,), mouse anti-AFP (1:100, Sigma), anti-Gata6 (1:50, Santa Cruz Biotech), goat anti-HNF6 (1:200, Santa Cruz Biotech), rabbit anti-RFP/DsRed (1:300, MBL), rabbit anti-GFP (1:200, Molecular Probes). Secondary antibodies were: rhodamine Red-X-conjugated donkey anti-goat antibody, 1:200 (JIRL), Alexa-488-conjugated goat anti-mouse and Alexa-594-conjugated goat anti-rabbit antibodies (1:300, Molecular Probes). Nuclei were visualized by Hoechst 33342 (1:1000, Molecular Probes). Images were taken using an Olympus IX70 Microscope. For quantification images were analyzed for the frequency of SOX17+, FoxA2+ or Pdx1+ cells using Metamorph image analysis software (Molecular Devices) and at least 6 images per well were collected. Data were confirmed in four independent experiments.
Endoderm formation was monitored by Sox17 expression by either flow cytometry detection of Sox17/DsRed or immunofluorescence using anti-Sox17 antibodies. Cells labeled by antibody staining were quantified using Metamorph software ad percentage of total cell number (based on Hoechst 33342 nuclei staining). All conditions were tested in either tri- or quadruplicates.

SMILES | incorporation of induced endodermal cells into gut tube (in words) [1] | embryos in which induced cells integrated into the gut [1] | phosphorylation of Smad2 / activation of the TGF-β pathway [2] | EC50 [3] | percentage of cells expressing Sox17 after 12 hrs treatment [3] | day of treatment at which endoderm induction peaks [3] | percentage of cells expressing Sox17 at day 2 of treatment [3] | percentage of cells expressing Sox17 at day 4 of treatment ([3]; day 4) | percent of total cells expressing Sox17 at day 6 of treatment [3]
O=C(O)CCCCCC(=O)NN=C1CCCC1 [IDE2] | incorporate into gut tube and show expression of gut tube markers | 7 out of 29 | comparable to that induced by Activin A treatment; also recorded: activation of the TGF-β pathway | 223 nM | ~40% | 6 days | 32% | 42±3.83% | 72% and 76±14%
O=C(O)CCCCCC(=O)N/N=C/c1ccccc1C(=O)O [IDE1] | incorporate into gut tube and show expression of gut tube markers | 8 out of 35 | comparable to that induced by Activin A treatment; also recorded: activation of the TGF-β pathway | 125 nM | ~40% | 6 days | 34% |  | 80% and 81±14%
